Results: patent publication US11364237B2, “Composition for inhibiting cancer metastasis and treating cancer” (ONCOCROSS CO., LTD., priority 2017, dated 2022)

Key:
[1] = system: colorectal cancer cell lines CT26, HCT116 and SW480; experiment: MTT cell survival rate, colorectal cancer cell lines; assay type: cell-based, mouse (CT26), human (HCT116; conditions: single treatment, 24, 48 and 72 hours; for concentration at which toxicity was shown (cell survival rate): FIGS. 1 to 3
Description: In order to confirm the effect of chlorphenesin (named as OC-201), chloroquine (named as OC-202) and chloropyrazine (named as OC-203) alone on the survival rate of colorectal cancer cells, cell survival rate was evaluated for the colorectal cancer cell lines CT26, HCT116 and SW480 cell lines by MTT assay (Promega, Ltd.) according to the manufacturer's protocol. […] The pre-treated cell lines were incubated with 5 mg/mL MTT for 4 hours. Thereafter, the medium was removed, and 150 μL of the solubilization solution and the stop solution were added, followed by incubation at 30° C. for 4 hours. The absorbance of the reaction solution was measured at 570 nm. The cell survival rate was calculated using the following Equation 1. Cell survival rate=absorbance of experimental group (at 570 nm)/absorbance of control (at 570 nm)×100(%) [Equation 1]
(§1) The pre-treated cell lines were incubated with 5 mg/mL MTT for 4 hours. Thereafter, the medium was removed, and 150 μL of the solubilization solution and the stop solution were added, followed by incubation at 30° C. for 4 hours. The absorbance of the reaction solution was measured at 570 nm. The cell survival rate was calculated using the above Equation 1.

[2] = system: pancreatic cancer cell lines Aspc-1, MIAPaCA2 and Panc-1; experiment: MTT cell survival rate, pancreatic cancer cell lines; assay type: cell-based, human; conditions: for cytotoxicity (cell survival rate), single administration: up to 1 mM chlorphenesin, up to 100 μM chloropyrazine, 24, 48, 72 hours, FIGS. 30 and 32
Description: as §1, with “mg/ml” for “mg/mL”, “equation 1 as described above.” for “above Equation 1.”
as §1, with “mg/ml” for “mg/mL”, “equation” for “Equation”

SNU1079 = experiment: MTT cell survival rate; assay type: cell-based, human; conditions: FIG. 47
Description: as §1, with “mg/ml” for “mg/mL”, “equation 1 as described above.” for “the above Equation 1.”

SNU 308 cell line = experiment: MTT cell survival rate; assay type: cell-based, human; conditions: after 48 hours, FIG. 47
Description: as §1, with “mg/ml” for “mg/mL”, “equation 1 as described above.” for “the above Equation 1.”

[3] = system: colorectal cancer cells CT26 and HCT116; experiment: Transwell migration assay at low concentration; assay type: cell-based, mouse (CT26), human (HCT116); conditions: 1 μM chlorphenesin; 8 hours; FIG. 58
CT26 cell-induced tumors = experiment: CT26 tumor animal model, tumor growth and lung metastasis; assay type: in vivo, Balb/c mice
Description: Specifically, 60 Balb/c mice were subcutaneously inoculated once with 100 μL of CT26 cell suspension (1×10^7 cells/mL) to induce tumors, thereby producing a xenograft animal model. […] For the chlorphenesin single administration, 10 animal models were abdominally administered with 10 mg/kg chlorphenesin (3 times a week) for 5 weeks or 14 animal models were orally administered with 20 mg/kg chlorphenesin (5 times a week) for 5 weeks. 14 animal models were administered with the same dose of PBS as chlorphenesin as a negative control. […] The body weight of the animal models was measured once a week, and the tumor size was measured once a week from the day of drug administration. After 6 weeks, animal models were anesthetized with ether, and tumors and lungs were collected.

[4] = system: biliary tract cancer cell lines SNU1079 and SNU308; conditions: human, 48 h
Description: as §1, with “mg/ml” for “mg/mL”, “equation 1 as described above.” for “the above Equation 1.”
as §1, with “mg/ml” for “mg/mL”, “equation” for “Equation”

[5] = system: biliary tract cancer cell line SNU1079; experiment: Transwell migration assay with Combination Index; conditions: 18 hours, FIGS. 51 and 52
CT26 cell line = experiment: Transwell migration assay, chlorphenesin alone; assay type: cell-based, mouse; conditions: 18 hours, FIGS. 10 and 11
[6] = system: colorectal cancer cell line CT26; experiment: Wound healing assay at low concentration; assay type: cell-based, mouse; conditions: 1 μM chlorphenesin; 24 hours; FIG. 59
Description: Wound healing analysis was performed to measure cell motility. […] After incubation of the cells for 24 hours in the presence or absence of chlorphenesin (1 μM), a photograph of the dyed monolayers was taken with a microscope.

[7] = system: colorectal cancer cell line HCT116; experiment: Wound healing assay; conditions: 0, 8 and 24 hours, FIGS. 21 to 23
[8] = system: colorectal cancer cell lines HCT116; experiment: Soft agar colony formation assay (anchorage independent growth), chlorphenesin alone; assay type: cell-based, human; conditions: 3 weeks, FIG. 27
HCT116 cell line = experiment: Transwell migration assay, chlorphenesin alone; assay type: cell-based, human; conditions: 18 hours, FIGS. 8 and 9
SW480 cell line = experiment: Transwell migration assay, chlorphenesin alone; assay type: cell-based, human; conditions: 18 hours, laminin in lower well, FIGS. 6 and 7

SMILES	concentration at which toxicity was shown (cell survival rate) [1]	concentration at which cytotoxicity was shown ([2]; single administration, FIG. 31)	concentration at which cytotoxicity was shown (SNU1079; after 48 hours)	concentration at which cytotoxicity was shown (SNU1079; for 24 hours)	concentration at which cytotoxicity was shown (SNU 308 cell line)	invasion ability and migration ability of the cells compared to the control [3]	tumor size compared with the control groups (CT26 cell-induced tumors; chlorphenesin 20 mg/kg orally, 5 times a week for 5 weeks, FIG. 61)	cancer metastasis to lungs compared to control groups (CT26 cell-induced tumors; chlorphenesin-treated group, 5 weeks dosing, lungs collected after 6 weeks, FIG. 60)	concentration at which apparent cytotoxicity was shown [4]	concentration at which cell migration was decreased [5]	concentration at which the decrease of cell migration was remarkable [5]	concentration at which cell migration was specially decreased (CT26 cell line)	mobility of the CT26 cell line (wound healing) [6]	cytotoxicity (cell survival rate), single administration [2]	concentration at which migration was decreased (wound healing) [7]	concentration at which colony forming ability was decreased [8]	concentration at which cell migration was specially decreased (HCT116 cell line)	concentration at which cell migration was significantly reduced (SW480 cell line)	concentration at which not toxic (cell survival rate) ([1]; FIG. 3)
CCN(CC)CCCC(C)Nc1ccnc2cc(Cl)ccc12 (stereo not drawn) [chloroquine]	more than 10 μM	≥ 50 µM	≥ 25 µM	≥ 50 µM	≥ 50 µM	–	–	–	–	–	–	–	–	–	–	–	–	–	–
OCC(O)COc1ccc(Cl)cc1 (stereo not drawn) [chlorphenesin]	more than 500 μM	–	–	–	–	significantly reduced	reduction in the tumor size	no cancer metastasis to lungs	≥ 1000 µM	≥ 25 µM	≥ 100 µM	≥ 250 µM	reduced	did not show cytotoxicity even at high doses	≥ 25 µM	≥ 250 µM	≥ 250 µM	≥ 25 µM	–
Clc1cnccn1 [chloropyrazine]	–	–	–	–	–	–	–	–	–	–	–	–	–	did not show cytotoxicity even at high doses	–	–	–	–	≤ 100 µM
